Test results: BindingDB's records for PubMed 8301592 (Washington University, 1994)
Several values for one entry are separate records, joined by “and”; a condition that tells them apart may be missing. Identical values can stand only once.

Target: D(3) dopamine receptor (Rattus norvegicus, UniProt P19020)
Sequence (P19020 whole entry): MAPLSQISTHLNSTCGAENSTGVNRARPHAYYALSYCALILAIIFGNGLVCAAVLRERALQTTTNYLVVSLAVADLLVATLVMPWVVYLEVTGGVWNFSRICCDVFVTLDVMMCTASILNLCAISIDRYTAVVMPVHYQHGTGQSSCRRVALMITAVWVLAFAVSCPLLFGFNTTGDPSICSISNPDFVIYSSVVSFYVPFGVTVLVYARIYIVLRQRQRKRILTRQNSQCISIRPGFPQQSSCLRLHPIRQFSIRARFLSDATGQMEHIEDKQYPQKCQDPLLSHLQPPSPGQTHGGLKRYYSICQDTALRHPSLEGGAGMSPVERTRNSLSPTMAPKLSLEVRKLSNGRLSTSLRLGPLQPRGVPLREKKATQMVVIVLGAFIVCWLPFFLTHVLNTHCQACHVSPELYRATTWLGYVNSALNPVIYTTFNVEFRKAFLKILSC

Row | SMILES | Ki
1 | CCc1cc(Cl)c(OC)c(C(=O)NC[C@@H]2CCCN2CC)c1O [3-Chloro-5-ethyl-N-((S)-1-ethyl-pyrrolidin-2-ylmethyl)-6-hydroxy-2-methoxy-benzamide] | 0.16 nM and 0.46 nM
2 | Nc1nc2c(ncn2[C@@H]2O[C@H](COP(=O)(O)OP(=O)(O)NP(=O)(O)O)[C@@H](O)[C@H]2O)c(=O)[nH]1 [Guanylyl imidodiphosphate] | 264 nM and 617 nM
